“And” between values parts separate entries of the source, which are not always exact repeats. Identical values can stand only once. Like-named read-outs stand apart in the source and are kept apart here.
Key:
[1] = tested on: vaccinia virus strain, Copenhagen; test: microbe, parasite or virus in culture; type: cell-based; settings: for EC50: read-out: Vaccinia Copenhagen EC50
[2] = tested on: cowpox virus, strain Brighton; test: microbe, parasite or virus in culture; type: cell-based; settings: for EC50: read-out: Cowpox Brighton EC50
[3] = tested on: Ectromelia Virus (ECTV, MOS strain); test: microbe, parasite or virus in culture; type: cell-based
ectromelia virus (ECTV) = tested on: ectromelia virus (ECTV); parameters: species or system A/Ncr mice; settings: mouse, in vivo; for MDD, Mean day of death / Mortality: po
HFF cells = test: Neutral-red uptake assay for toxicity; settings: 7 days
[4] = Neutral-red uptake assay for toxicity; settings: human, HFF cells
[5] = Metabolic stability testing with human liver S9 fractions; settings: FIG. 3; 37° C., protein 3 mg/mL, compound 1 μM
[6] = Metabolic stability testing with monkey liver S9 fractions; settings: FIG. 3; 37° C., protein 3 mg/mL, compound 1 μM
[7] = read-out: Ectromelia Virus EC50

14-methyl-pentadecyloxypropyl cidofovir [Compound 14M-PDP-CDV]
EC50 [1]: 140 nM
EC50 [2]: 130 nM
EC50 [3, 7]: 170 nM
MDD, Mean day of death (ectromelia virus (ECTV); 2.5 mg/kg): 14
Mortality (ectromelia virus (ECTV); 2.5 mg/kg): 1/5
Mortality (ectromelia virus (ECTV); 5 mg/kg): 0/5
Mortality (ectromelia virus (ECTV); 10 mg/kg): 0/5
CC50 (HFF cells; Table 3, neutral-red uptake): 18000 ± 1100 nM

17-methyl-octadecyloxyethyl cidofovir [Compound 17M-ODE-CDV]
EC50 [1]: 32 nM
EC50 [2]: 50 nM
EC50 [3, 7]: 80 nM
CC50 (HFF cells; Table 3, neutral-red uptake): 15000 ± 4000 nM

CC(C)CCCCCCCCCCCCCCOCCOP(=O)(O)CO[C@H](CO)Cn1cnc2c(N)ncnc21 [15M-HDE-HPMPA, 3-(15-methylhexadceyloxy)ethyl (S)-HPMPA]
EC50 [3, 7]: 12 nM

CC(C)CCCCCCCCCCCCCCOCCCOP(=O)(O)CO[C@H](CO)Cn1cnc2c(N)ncnc21 [15M-HDP-(S)-HPMPA, 3-(15-methylhexadecyloxy)propyl (S)-HPMPA]
EC50 [1]: 12 nM
EC50 [2]: 52 nM
activity relative to HDP-(S)-HPMPA in lethal ectromelia infection (ectromelia virus (ECTV)): more active than HDP-(S)-HPMPA
MDD, Mean day of death (ectromelia virus (ECTV); 2.5 mg/kg): 14.3
Mortality (ectromelia virus (ECTV); 2.5 mg/kg): 3/5
Mortality (ectromelia virus (ECTV); 5 mg/kg): 0/5
Mortality (ectromelia virus (ECTV); 10 mg/kg): 0/5
CC50 (HFF cells; Table 4, neutral-red uptake): 27500 nM

CC(C)CCCCCCCCCCCCCCCCOCCOP(=O)(O)CO[C@H](CO)Cn1cnc2c(N)ncnc21 [17M-ODE-(S)-HPMPA, 2-(17-methyloctadecyloxy)ethyl (S)-HPMPA]
EC50 [1]: 9 nM
EC50 [2]: 11 nM
CC50 (HFF cells; Table 4, neutral-red uptake): 800 nM

Nc1ccn(C[C@@H](CO)OCP(=O)(O)O)c(=O)n1 [CDV, cidofovir]
Vaccinia Copenhagen SI (Selectivity Index) = CC50/EC50 [1]: >17 and >16
EC50 ([1]; Orthopoxvirus vaccinia, HFF): 19000 ± 9900 nM
EC50 [1]: 19400 nM
Cowpox Brighton SI (Selectivity Index) = CC50/EC50 [2]: >10 and >8.3
EC50 ([2]; Cowpox virus, HFF): 31000 ± 1700 nM
EC50 [2]: 38100 nM
CC50 at 7 days [4]: > 317000 nM
CC50 (HFF cells; Table 4, neutral-red uptake): > 317000 nM

CC(C)CCCCCCCCCCCOCCCOP(=O)(O)CO[C@H](CO)Cn1ccc(N)nc1=O [Compound 12M-TrDP-CDV, 12-methyl-tridecyloxypropyl cidofovir]
EC50 [1]: 700 nM
EC50 [2]: 900 nM
EC50 [3, 7]: 940 nM
CC50 (HFF cells; Table 3, neutral-red uptake): 44000 ± 5400 nM

CC(C)CCCCCCCCCCCCOCCCOP(=O)(O)CO[C@H](CO)Cn1ccc(N)nc1=O [Compound 13M-TDP-CDV, 13-methyl-tetradecyloxypropyl cidofovir]
EC50 [1]: 130 nM
EC50 [2]: 200 nM
EC50 [3, 7]: 400 nM
MDD, Mean day of death (ectromelia virus (ECTV); 2.5 mg/kg): 9.3
Mortality (ectromelia virus (ECTV); 2.5 mg/kg): 4/5
Mortality (ectromelia virus (ECTV); 5 mg/kg): 0/5
Mortality (ectromelia virus (ECTV); 10 mg/kg): 0/5
CC50 (HFF cells; Table 3, neutral-red uptake): 41000 ± 2000 nM

CC(C)CCCCCCCCCCCCCCOCCCOP(=O)(O)CO[C@H](CO)Cn1ccc(N)nc1=O [Compound 15M-HDP-CDV, 15-methyl-hexadecyloxypropyl cidofovir]
EC50 [1]: 100 nM
EC50 [2]: 340 nM
EC50 [3, 7]: 40 nM
CC50 (HFF cells; Table 3, neutral-red uptake): 15200 ± 5500 nM
degradation by human liver S9 fractions (% of drug remaining versus time), relative to HDP-CDV [5]: markedly slower
degradation by monkey liver S9 fractions (% of drug remaining versus time), relative to HDP-CDV [6]: markedly slower

CCCCCCCCCCCCCCCCOCCOP(=O)(O)COC(CO)Cn1cnc2c(N)ncnc21 (stereo not shown) [HDE-HPMPA, reference compound]
EC50 [3, 7]: 50 nM

CCCCCCCCCCCCCCCCOCCCOP(=O)(O)CO[C@H](CO)Cn1cnc2c(N)ncnc21 [HDP-(S)-HPMPA, reference compound]
EC50 [1]: 10 nM
EC50 [2]: 18 nM
MDD, Mean day of death (ectromelia virus (ECTV); 2.5 mg/kg): 9.4
Mortality (ectromelia virus (ECTV); 2.5 mg/kg): 5/5
MDD, Mean day of death (ectromelia virus (ECTV); 5 mg/kg): 11
Mortality (ectromelia virus (ECTV); 5 mg/kg): 1/5
Mortality (ectromelia virus (ECTV); 10 mg/kg): 0/5
CC50 (HFF cells; Table 4, neutral-red uptake): 31800 nM

CCCCCCCCCCCCCCCCOCCCOP(=O)(O)CO[C@H](CO)Cn1ccc(N)nc1=O [HDP-CDV, hexadecyloxypropyl-CDV, reference compound]
Vaccinia Copenhagen SI (Selectivity Index) = CC50/EC50 [1]: 470
EC50 ([1]; Orthopoxvirus vaccinia, HFF): 200 nM
Cowpox Brighton SI (Selectivity Index) = CC50/EC50 [2]: 470
EC50 ([2]; Cowpox virus, HFF): 200 nM
EC50 ([3]; Ectromelia virus, CV-1, read-out: Ectromelia Virus EC50): 140 nM
MDD, Mean day of death (ectromelia virus (ECTV); 2.5 mg/kg): 13
Mortality (ectromelia virus (ECTV); 2.5 mg/kg): 2/5
Mortality (ectromelia virus (ECTV); 5 mg/kg): 0/5
Mortality (ectromelia virus (ECTV); 10 mg/kg): 0/5
CC50 (in vitro): 10000 nM
CC50 at 7 days [4]: 94000 nM

CCCCCCCCCCCCCCCCCCOCCOP(=O)(O)CO[C@H](CO)Cn1cnc2c(N)ncnc21 [ODE-(S)-HPMPA]
EC50 [1]: 8 nM
EC50 [2]: 12 nM
CC50 (HFF cells; Table 4, neutral-red uptake): 2100 nM
